From patent publication US20040127549A1, “Cyclic 2-carbonylaminoketones as inhibitors of cruzipain and other cysteine proteases” (priority 2001, published 2004)

How the values were obtained:
[1] = biological target: T1, Bovine Cathepsin S (Bos taurus, UniProt P25326); experiment: Cathepsin peptidase activity assay (Ki), bovine cathepsin S; assay type: biochemical; details: pH 6.5, 25±1° C.
T1 construct: purchased CN Biosciences
Method: (§1) Assay protocols were based on literature precedent (Tablel; Barrett, A. J., Rawlings, N. D. and Woessner, J. F., 1998, Handbook of Proteolytic Enzymes, Academic Press, London and references therein) and modified as required to suit local assay protocols. Enzyme was added as required to initiate the reaction and the activity, as judged by the change in fluorescence upon conversion of substrate to product, was monitored over time. All assays were carried out at 25±1° C.
(§2) Bovine cathepsin S, human cathepsin L, human cathepsin H and human cathepsin B were obtained from CN Biosciences. Recombinant human cathepsin S, human cathepsin K and human cathepsin X were obtained from Dr. Boris Turk (Josef Stefan Institute, Ljubljana, Slovenia). Unless otherwise stated, all peptidase activity assays were carried out in 10 mM bis-tris-propane (BTP), pH 6.5 containing 1 mM EDTA, 5 mM 2-mercaptoethanol and 1 mM CaCl2. Human cathepsin H activity assays were carried out in 10 mM BTP pH 6.5, 142 MM NaCl2 1 mM CaCl2, 1 mM EDTA, 1 mM DTr, 0.035 mM Zwittergent 3-16. […] The rate of conversion of substrate to product was derived from the slope of the increase in fluorescence monitored continuously over time.
(§3) The apparent inhibition constant (Ki) for each compound was determined on the basis that inhibition was reversible and occurred by a pure-competitive mechanism. The Ki values were calculated, from the dependence of enzyme activity as a function of inhibitor concentration, by direct regression analysis (Prism v 3.02) using Equation 2 (Cornish-Bowden, A., 1995.). […]
(§4) In situations where the apparent dissociation constant (Ki^app) approached the enzyme concentrations, the Ki^app values were calculated using a quadratic solution in the form described by Equation 3 (Morrison, J. F. Trends Biochem. Sci., 7, 102-105, 1982; Morrison, J. F. Biochim. Biophys. Acta, 185, 269-286, 1969; Stone, S.R. and Hofsteenge, J. Biochemistry, 25, 4622-4628, 1986). […]

[2] = biological target: T2, Cruzipain (Trypanosoma cruzi, UniProt P25779); experiment: Trypanosoma cruzi cruzipain peptidase activity assay (Ki); assay type: biochemical; details: wild-type cruzipain, pH 6.75, 25±1° C.
T2 construct: Wild-type cruzipain, derived from Trypanosoma cruzi Dm28 epimastigotes, was obtained from Dr. Julio Scharfstein; tissue Dr. Julio Scharfstein (Instituto de Biofisica Carlos Chagas Filho, Universidade Federal do Rio de Janeiro); host or cells: Trypanosoma cruzi Dm28 epimastigotes
Method: as §1
Wild-type cruzipain, derived from Trypanosoma cruzi Dm28 epimastigotes, was obtained from Dr. Julio Scharfstein (Instituto de Biofisica Carlos Chagas Filho, Universidade Federal do R10 de Janeiro, R10 de Janeiro, Brazil). Activity assays were carried out in 100 mM sodium phosphate, pH 6.75 containing 1 mM EDTA and 10 mM L-cysteine using 2.5 nM enzyme. Ac-Phe-Arg-AMC (KM^app≈12 1M) and D-Val-Leu-Lys-AMC (KM^app≈4 1M) were used as the substrates. Routinely, Ac-FR-AMC was used at a concentration equivalent to KM^app and D-Val-Leu-Lys-AMC was used at a concentration of 25 μM. The rate of conversion of substrate to product was derived from the slope of the increase in fluorescence monitored continuously over time.
as §3, with “1995.). [formula]” for “1995.).”
as §4

[3] = biological target: T3, Human Cathepsin K (Homo sapiens, UniProt P43235); experiment: Cathepsin peptidase activity assay (Ki), human cathepsin K; assay type: biochemical; details: pH 5.5, 25±1° C.
T3 construct: purchased Dr. Boris Turk (Josef Stefan Institute, Ljubljana, Slovenia)
T3 sequence (P43235 115-329): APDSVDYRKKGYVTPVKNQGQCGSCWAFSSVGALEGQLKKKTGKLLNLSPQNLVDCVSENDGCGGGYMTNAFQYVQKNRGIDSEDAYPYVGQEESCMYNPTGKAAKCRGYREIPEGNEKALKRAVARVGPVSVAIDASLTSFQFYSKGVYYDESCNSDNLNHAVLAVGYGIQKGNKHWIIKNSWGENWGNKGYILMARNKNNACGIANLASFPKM
Method: as §1, §2, §3, §4

[4] = biological target: T4, Human Cathepsin L (Homo sapiens, UniProt P07711); experiment: Cathepsin peptidase activity assay (Ki), human cathepsin L; assay type: biochemical; details: pH 6.5, 25±1° C.
T4 construct: purchased CN Biosciences
Method: as §1, §2, §3, §4

[5] = test system: Trypanosoma cruzi-infected mammalian cell cultures; details: addition to infected mammalian cell cultures; cited from earlier work
[6] = test system: Trypanosoma cruzi infection; details: acute phase of infection; cited from earlier work

T1 sequence (P25326 115-331): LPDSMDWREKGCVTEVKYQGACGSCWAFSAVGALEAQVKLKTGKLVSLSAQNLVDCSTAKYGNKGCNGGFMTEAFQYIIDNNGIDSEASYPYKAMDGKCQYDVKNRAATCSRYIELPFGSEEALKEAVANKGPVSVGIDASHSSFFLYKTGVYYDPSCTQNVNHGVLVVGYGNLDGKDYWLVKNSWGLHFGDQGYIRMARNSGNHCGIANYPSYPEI
T4 sequence (P07711 114-333): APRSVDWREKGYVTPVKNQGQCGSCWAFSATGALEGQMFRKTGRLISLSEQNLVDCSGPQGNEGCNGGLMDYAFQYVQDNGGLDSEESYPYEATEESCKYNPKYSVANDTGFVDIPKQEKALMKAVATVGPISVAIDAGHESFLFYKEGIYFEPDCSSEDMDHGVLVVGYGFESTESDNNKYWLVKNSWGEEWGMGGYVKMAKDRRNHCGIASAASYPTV
T2 sequence (P25779 123-467): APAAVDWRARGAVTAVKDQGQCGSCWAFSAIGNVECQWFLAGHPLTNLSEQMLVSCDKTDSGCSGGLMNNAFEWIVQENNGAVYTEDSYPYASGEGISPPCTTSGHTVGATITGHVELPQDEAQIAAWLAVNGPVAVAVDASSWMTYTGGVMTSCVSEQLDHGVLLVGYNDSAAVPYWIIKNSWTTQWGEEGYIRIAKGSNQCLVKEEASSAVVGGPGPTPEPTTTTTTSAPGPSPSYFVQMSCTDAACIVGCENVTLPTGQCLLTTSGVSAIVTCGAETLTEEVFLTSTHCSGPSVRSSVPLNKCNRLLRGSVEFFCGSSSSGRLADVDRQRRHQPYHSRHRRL

Compound | Ki [1] | Ki [2] | Ki [3] | Ki [4] | effect on parasite replication and differentiation [5] | cure [6]
C[C@H]1OCC(=O)[C@]1(C)NC(=O)[C@H](Cc1ccc(O)cc1)NC(=O)c1csc(-c2cccnc2)n1 [Example 6, (2R, 3R) 2-Pyridin-3-yl-thiazole4-carboxylic acid [1-(2,3-dimethyl-4oxo-tetrahydrofuran-3-ylcarbamoyl)-2-(4-hydroxyphenyl)-ethyl]-amide] | > 50 µM | < 2 µM | > 100 µM | > 50 µM | – | –
C[C@H]1OCC(=O)[C@]1(C)NC(=O)[C@H](CC1CCCCC1)NC(=O)c1ccoc1 [Example 19, (2R, 3R) Furan-3-carboxylic acid [2-cyclohexyl-1-(2,3-dimethyl-oxo-tetrahydrofuran-3-ylcaxbamoyl)-ethyl]-amide] | < 2 µM | > 50 µM | > 50 µM | > 50 µM | – | –
C[C@H]1OCC(=O)[C@]1(C)NC(=O)[C@H](Cc1ccc(O)cc1)NC(=O)c1cccc2ccccc12 [Example 27, (2R, 3R) Naphthalene-1-carboxylic acid [1-(2,3-dimethyl-4-oxo-tetrahydrofuran-3-ylcarbamoyl)-2-(4-hydroxyphenyl)-ethyl]-amide] | > 50 µM | > 20 µM | > 100 µM | < 5 µM | – | –
CC(NC(=O)C(Cc1ccccc1)NC(=O)OCc1ccccc1)C(=O)CF (stereo not drawn) [Z-Phe-Ala-FMK] | – | – | – | – | blocked replication and differentiation of the parasite | –
O=C(Cn1ccnc1[N+](=O)[O-])NCc1ccccc1 [benznidazole] | – | – | – | – | – | 60%
